Results published in patent US8012751B2, “Differentiation of pluripotent embryonic stem cells” (Wisconsin Alumni Research Foundation, priority 2005, dated 2011).

Columns and labels:
[1] = system: caspase-3-like activity in ES cells; experiment: in vitro caspase-3 cell lysate assay; format: biochemical, human and mouse; details: treatment with DEVD.fmk
Description: Activation of caspase-3 is widely considered a marker of the late stages of programmed cell death. In vivo, most of the caspase-3-like enzymatic activity is attributed to caspase-3 and -7. Applicants have therefore assayed caspase-3-like activity in undifferentiated human and mouse ES cell lines using an in vitro cell lysate assay (FIG. 1B, left). […] To further characterize the elevation of caspase-3-like activity in individual ES cells, applicants performed flow cytometry using an antibody specifically recognizing the activated form of caspase-3 (FIG. 1B, right). […] In ES cells, staining for activated caspase-3 was concentrated in the nucleus, with reduced staining in the cytosol (FIG. 1C). In intact embryos, moderate immunostaining of activated caspase-3 was present in all cells of the compacted morula, and in the ICM, but was largely absent in the trophectoderm (FIG. 1D).

[2] = system: p85 fragment of PARP-1 in human ES cells; experiment: Western immunoblotting for cleaved p85 PARP-1 fragment; format: cell-based; details: human ES cells treated with DEVD.fmk
Description: Cell lysates were collected from H1 Human ES cells grown on mouse embryonic fibroblasts, D3 Mouse ES cells, Human Foreskin Fibroblasts (HF), 19 MEFs, and apoptotic MEFs induced with 25 μl/ml of 3% H2O2. Cytosolic and mitochondrial lysates were isolated using the ApoAlert Cell Fractionation Kit (Clontech, Palo Alto, Calif.) and whole-cell lysates were isolated using M-PER Mammalian Protein Extraction Reagent (Pierce, Rockford, Ill.) with 1:1000 dilution of Protease Inhibitor Cocktail (Sigma) and Pefablock SC (final concentration 0.2 μg/ml)(Sigma). Lysates were run on SDS-PAGE gels, transferred to Trans-Blot Transfer Medium (Bio-Rad, Hercules, Calif.) and peroxidase-conjugated secondary antibodies were detected using Supersignal West Pico Chemiluminscent Substrate (Pierce). Cytochrome C was detected with 1:100 dilution of Cytochrome C Antibody (Clontech) and 1:2000 Goat Anti-Rabbit IgG (H+L) (Caltag Laboratories, Burlingame, Calif). COX4 was detected with dilutions of 1:1000 COX4 Antibody (Clontech) and 1:1000 Anti-mouse IgG (g)-Peroxidase (Roche, Basel, Switzerland). PARP was detected with dilutions of 1:400 anti-p85 PARP (rabbit polyclonal IgG) (Promega) and 1:5000 goat Anti-Rabbit IgG (H+L) (Caltag Laboratories).
(§1) Human ES cells were plated out as small colonies on matrigel, mouse ES cells on gelatin. DEVD.fmk was added twice a day and half of the ES cell medium was changed daily. […]

[3] = system: PARP-1 activity in human ES cells; experiment: in vitro PARP activity assay; format: cell-based; details: human ES cells treated with DEVD.fmk; p<0.01
Description: (§2) Apoptotic cells were detected using the Annexin-V binding kit (ApoAlert, Clontech) or the TUNEL assay kit (DeadEnd, Promega). PARP activity was determined according to a protocol published by Bakondi and others (Bakondi et al., 2002). In order to detect activated caspase-3 or cleaved p85 PARP-1, cells were fixed in CytoFix (BD), permeablized in CytoPerm, and incubated at 1 μg/ml of anti-active caspase-3 antibody (Cellsignalling) or with 1 μg/ml anti-p85 PARP-1 (Promega) overnight at 4° C. The cells were then washed with CytoPern and incubated with secondary anti-rabbit FITC conjugated antibodies (1:200 dilution) for 60 minutes at room temperature. Mouse embryos were fixed in methanol:DMSO (4:1) (Sigma) overnight at 4° C., re-hydrated in 50% methanol, and then incubated with the primary antibodies (anti-p85 PARP-1 or anti-active caspase-3) in PBS with 2% nonfat instant skim milk and 0.5% Triton-X 100 with gentle shaking overnight at 4° C. Embryos were washed 6 times for 5 minutes at room temperature in PBS with 2% nonfat instant skim milk and 0.5% Triton-X 100 with gentle shaking and incubated in the same way with the secondary fluorescent antibody. Cells and embryos were visualized using a confocal laserscan microscope (Leica) or flow cytometry.
Human ES cells were plated out as small colonies on matrigel, mouse ES cells on gelatin. […]

human ES cells [4] = experiment: Oct4 staining (flow cytometry / immunocytochemistry) of differentiation; format: cell-based
Description: (§3) H1 human ES cells (WiCell) were cultured as previously described and incorporated by reference herein (Amit et al., 2000). Human ES cells were cultured under feeder-free conditions on culture flasks that were pre-coated with matrigel™ (Becton Dickinson Labware, Bedford, MA), using medium conditioned overnight on dense murine embryonic fibroblasts (MEFs) (Xu et al., 2001a). D3 mouse ES cells (ATCC) were cultured under feeder-free conditions in mouse ES cell medium, consisting of 85% Knock-Out DMEM supplemented with 15% Gibco KNOCKOUT Serum Replacement, 2.5 mM glutamine, 0.1 mM beta-mercaptoethanol (Sigma), and 1000 U/l LIF (Esgro) on gelatin-coated plates. Murine and human fibroblasts and the 293T cell lines were cultivated in DMEM +10% Fetal bovine serum (FBS) and 1% non essential amino acids.
(§4) Cells were treated with trypsin/EDTA and washed with PBS (both reagents are available through Invitrogen Corp.) Dead cells were excluded from analysis by forward- and side-scatter gating. Eighteen samples were analyzed using a FACScan (Becton Dickinson) flow cytometer and Cellquest software (Becton Dickinson). A minimum of 50,000 events were acquired for each sample. For Oct4 expression studies cells were stained for Oct4 using monoclonal Oct4 antibody (1 μl/10^6 cells, available through Santa Cruz). Cells were analyzed by flow cytometry analysis in a fluorescence activated cell sorter. […]

human ES cells [5] = experiment: Annexin-V EGFP binding (programmed cell death); format: cell-based; details: p=0.0011
Description: as §2, with “Embryos were washed 6 times for 5 minutes at room temperature in PBS with 2% nonfat instant skim milk and 0.5% Triton-X 100 with gentle shaking and incubated in the same way with the secondary fluorescent antibody. Cells and embryos were visualized using a confocal laserscan microscope (Leica) or flow cytometry.” left out
as §4, with “A minimum of 50,000 events were acquired for each sample. For Oct4 expression studies cells were stained for Oct4 using monoclonal Oct4 antibody (1 μl/10^6 cells, available through Santa Cruz).” left out

human ES cells [6] = experiment: cell proliferation assay (MTS test); format: cell-based
Description: Human ES cells were grown for the indicated time in 96-wells on Matrigel and a MTS test (CellTiter 96, Promega) was performed according to manufacturers′ instructions.
(§5) Human ES cells were plated out as small colonies on matrigel, mouse ES cells on gelatin. DEVD.fmk was added twice a day and half of the ES cell medium was changed daily. As a control, the same volume of DEVD.fmk solvent (DMSO) was added and no significant effect on the number of undifferentiated cells was observed. Recombinant TAT-caspase-3rev was added 4 hours after application of caspase blocker and equal volumes of TAT protein served as controls. Mouse embryos were treated once in the 50 μl microdrop with the given concentration of DEVD.fmk or post-incubation 4 hours later with recombinant TAT-caspase-3rev.

mouse morulas = experiment: development of pre-implantation embryos to expanded blastocysts
Description: (§6) Three to nine-week-old female B6C3F1 mice (Charles Rivers) were superovulated with a single 10 IU intraperitoneal injection of Pregnant Mare's Serum Gonadotrophin (Gestyl, Diosynth B.V.—OSS). Forty-eight hours later, ovulation was triggered with a single 10 IU intraperitoneal injection of human Chorionic Gonadotrophin (hCG, Novarel/Ferring) and the female mice were mated with male BDF1 mice (Charles Rivers) of proven fertility. Two-cell stage embryos were flushed from the oviducts of the female mice 38 to 40 hours after the hCG injection using modified-Human Tubal Fluid medium (m-HTF, Irvine Scientific) supplemented with 0.5 mg/mL polyvinyl alcohol (PVA, Sigma). The resulting embryos were washed and cultured in the same medium. Groups of 10-15 embryos were cultured at 37° C. with 5% CO2/95% air in 50 μL drops of m-HTF medium covered with mineral oil (Ovoil, Vitrolife). In the outgrowth experiments, the zona pellucida was digested with pronase and embryos were plated out on gelatin in ES cell derivation medium with 1000 U/mL LIF.
as §1, with “daily. As a control, the same volume of DEVD.fmk solvent (DMSO) was added and no significant effect on the number of undifferentiated cells was observed.” for “daily.”

mouse embryos = experiment: embryo culture outgrowth experiments; details: treated embryos n=34
Description: as §6
as §1, with “daily. As a control, the same volume of DEVD.fmk solvent (DMSO) was added and no significant effect on the number of undifferentiated cells was observed.” for “daily.”

human ES cells [7] = experiment: microarray gene expression analysis of DEVD.fmk treated cells; format: cell-based
Description: Since ES cells differentiate relatively uniformly from their undifferentiated state into the spindle-shaped cells, we performed a microarray analysis of the differentiated human cells treated with DEVD.fmk. […] In both zebrafish and Xenopus, dickkopf genes have been associated with the development of mesoderm and endoderm. The identity of the differentiated cell type is most likely a common precursor of mesoderm and endoderm (“mesendoderm”).

human ES cells [8] = experiment: morphology and time of differentiation of treated ES cells; format: cell-based
Description: as §3
as §5, with “Mouse embryos were treated once in the 50 μl microdrop with the given concentration of DEVD.fmk or post-incubation 4 hours later with recombinant TAT-caspase-3rev.” left out

[9] = versus undifferentiated ES cells

## N-benzyloxycarbonyl-Asp-Glu-Val-Asp fluoromethylketone (DEVD; HELM PEPTIDE1{[O=C(OCc1ccccc1)[*:2]].D.E.V.D.[FC[*:1]]}$$$$V2.0; SMILES CC(C)[C@H](NC(=O)[C@H](CCC(=O)O)NC(=O)[C@H](CC(=O)O)NC(=O)OCc1ccccc1)C(=O)N[C@@H](CC(=O)O)C(=O)CF) [DEVD.fmk]
[1]
  caspase-3-like activity: reduced this activity
[2]
  p85 PARP-1 fragment in Western blot analysis: disappearance
[3]
  PARP-1 activity: upregulated
Human ES cells [4]; human ES cells, p<0.01
  induction of differentiation as measured by Oct4 staining: dose dependent induction of differentiation
Human ES cells [4]; spindle-shaped cells after DEVD.fmk, data not shown
  Oct4 staining by immunocytochemistry: failed to stain for Oct4
Human ES cells [5]
  rate of programmed cell death as measured by Annexin-V EGFP staining: dose-dependent reduction
Human ES cells [6]; after 3 days
  decrease in proliferation of human ES cells: no longer observed
Human ES cells [6]; first 48 hours after application
  proliferation of human ES cells: small decrease in proliferation
Mouse morulas; 200 μM DEVD.fmk
  development to expanded blastocysts: completely inhibiting development to expanded blastocysts
Mouse morulas; added to E2.0, E2.5, E3.0 mouse morulas, dose-dependent
  development of blastocysts: inhibited the development of blastocysts
Mouse embryos
  outgrowth: rind and core structures of extraembryonic endoderm overlying epiblast: always failed to produce prominent rind and core structures
Human ES cells [7]; microarray, FIG. 7
  up-regulation of DKK4: over 170 fold
Human ES cells [7]; [9]
  upregulation of BMP4: 45 X
  upregulation of DKK4: 137 X
  upregulation of GATA-3: 9 X
  upregulation of WNT3: 3 X
  upregulation of WNT5A: 5 X
  upregulation of brachyury variant A: 73 X
Human ES cells [8]; human ES cells incubated with caspase inhibitor
  time to differentiate into morphologically uniform mesendoderm cells: 2-3 days
Human ES cells [8]; human ES cells treated with DEVD.fmk
  cell morphology: differentiated to a spindle shape cell with a much smaller nuclear-cytoplasmic ratio
